Assays:
[1] = target: T1, human URAT1 (Homo sapiens, UniProt Q96S37); settings: for URAT1 inhibitory activity (in words): human URAT1, HEK293-URAT1 cells
T1 sequence (Q96S37 1-553): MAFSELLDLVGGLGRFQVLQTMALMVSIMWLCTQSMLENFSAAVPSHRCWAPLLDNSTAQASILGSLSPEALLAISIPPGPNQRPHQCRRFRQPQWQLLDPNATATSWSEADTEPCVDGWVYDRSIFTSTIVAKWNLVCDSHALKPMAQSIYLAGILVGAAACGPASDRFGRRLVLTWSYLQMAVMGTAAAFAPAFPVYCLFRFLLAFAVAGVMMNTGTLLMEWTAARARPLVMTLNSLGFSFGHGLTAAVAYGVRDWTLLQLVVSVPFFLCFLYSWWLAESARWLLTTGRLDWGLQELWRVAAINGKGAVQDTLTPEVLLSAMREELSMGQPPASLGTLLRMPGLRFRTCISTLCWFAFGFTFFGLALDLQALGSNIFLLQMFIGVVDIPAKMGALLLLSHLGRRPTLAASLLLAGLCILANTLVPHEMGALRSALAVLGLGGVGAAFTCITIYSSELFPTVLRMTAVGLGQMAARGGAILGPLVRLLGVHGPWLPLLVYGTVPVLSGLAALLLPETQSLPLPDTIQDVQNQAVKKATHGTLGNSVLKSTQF
Description: After incubation for 48 h, when the HEK293-URAT1 cells and mock cells were grown to confluence, the cells were treated with 0.25% trypsin for 1–2 min. Thereafter, the digested cells were diluted to a density of 1.5 × 10^5/mL and seeded onto the 24-well cell culture plates at 1 mL/well for about 48 h. […] The HEK293-URAT1 cells were then washed rapidly three times with ice-cold HBSS (Cl^− free) and lysed with 0.1 M aqueous NaOH solution. After that, 500-μL aliquots of cell lysates were transferred to scintillation vials and mixed with scintillation solution. The radioactivity in the cells was measured by a liquid scintillation counter (PerkinElmer, Waltham, MA, USA).

[2] = parameters: method as in PMID 17531180; settings: weak organic acid; cited from earlier work
[3] = ratio of IC50 values against human URAT1

| melting point | IC50 [1] [µM] | SMILES | further results |
| --- | --- | --- | --- |
| 99 °C (dec.) | 0.12 ± 0.03 | O=C([O-])CSc1nnc(Br)n1Cc1sc2ccccc2c1Br.[Na+] [1hh, Sodium 2-((5-bromo-4-((3-bromobenzo[b]thiophen-2-yl)methyl)-4H-1,2,4-triazol-3-yl)thio)acetate] |  |
|  | 0.035 ± 0.01 | O=C([O-])CSc1nnc(Br)n1Cc1cccs1.[Na+] [1h, Sodium 2-((5-bromo-4-(2-thiophenylmethyl)-4H-1,2,4-triazol-3-yl)thio)acetate] | fold more potent than benzbromarone [1, 3]: 8 fold; fold more potent than parent lesinurad [1, 3]: 200 fold |
| 161 °C (dec.) | 5.55 ± 0.98 | N#Cc1ccc(Cn2c(Br)cnc2SCC(=O)[O-])c2ccccc12.[Na+] [1q, Sodium 2-((5-bromo-1-((4-cyano-1-naphthyl)methyl)-1H-imidazol-2-yl)thio)acetate] |  |
| 135 °C (dec.) | 4.6 ± 0.88 | O=C([O-])CSc1nnc(Br)n1CC1CCCCC1.[Na+] [1c, Sodium 2-((5-bromo-4-(cyclohexylmethyl)-4H-1,2,4-triazol-3-yl)thio)acetate] |  |
|  | 3.8 ± 0.78 | N#Cc1ccc(Cn2c(Br)nnc2SCC(=O)O)c2ccccc12 [1l, Sodium 2-((5-bromo-4-((4-cyano-1-naphthyl)methyl)-4H-1,2,4-triazol-3-yl)thio)acetate] |  |
| 268 °C (dec.) | 8.83 ± 1.02 | N#Cc1ccc(Cc2cnccc2SCC(=O)[O-])c2ccccc12.[Na+] [1t, Sodium 2-((3-((4-cyano-1-naphthyl)methyl)pyridin-4-yl)thio)acetate] |  |
| 195 °C (dec.) | 1.15 ± 0.25 | O=C([O-])CSc1nnc(Br)n1C(c1ccccc1)c1ccccc1.[Na+] [1j, Sodium 2-((5-bromo-4-(diphenylmethyl)-4H-1,2,4-triazol-3-yl)thio)acetate] |  |
| 285 °C (dec.) | 0.48 ± 0.11 | N#Cc1ccc(Cn2c(Br)cnc2SC2(C(=O)[O-])CCC2)c2ccccc12.[Na+] [1s, Sodium 1-((5-bromo-1-((4-cyano-1-naphthyl)methyl)-1H-imidazol-2-yl)thio)cyclobutanecarboxylate] |  |
| 158 °C (dec.) | 3.04 ± 0.84 | Cc1ccsc1Cn1c(Br)nnc1SCC(=O)[O-].[Na+] [1hd, Sodium 2-((5-bromo-4-((3-methyl-2-thiophenyl)methyl)-4H-1,2,4-triazol-3-yl)thio)acetate] |  |
| 199 to 201 °C | 1.16 ± 0.34 | O=C([O-])CSc1nnc(Br)n1Cc1ccc(-c2ccccc2)cc1.[Na+] [1i, Sodium 2-((4-(biphenyl-4-methyl)-5-bromo-4H-1,2,4-triazol-3-yl)thio)acetate] |  |
| 124 to 126 °C | > 50 | O=C([O-])CSc1nnc(Br)n1Cc1ccsc1.[Na+] [1hf, Sodium 2-((5-bromo-4-((3-thiophenyl)methyl)-4H-1,2,4-triazol-3-yl)thio)acetate] | URAT1 inhibitory activity (in words) [1]: complete loss of URAT1 inhibitory activity |
| 119 to 121 °C | 2.98 ± 0.6 | O=C([O-])CSc1nnc(Br)n1Cc1ccccc1.[Na+] [1e, Sodium 2-((4-benzyl-5-bromo-4H-1,2,4-triazol-3-yl)thio)acetate] |  |
| 92 °C (dec.) | 2.61 ± 0.4 | O=C([O-])CSc1nnc(Br)n1Cc1ccc2occc2c1.[Na+] [1k, Sodium 2-((4-(benzo[b]furan-5-methyl)-5-bromo-4H-1,2,4-triazol-3-yl)thio)acetate] |  |
| 87 °C (dec.) | 6.1 ± 1.17 | Cc1cc(Cn2c(Br)nnc2SCC(=O)[O-])sc1Br.[Na+] [1he, Sodium 2-((5-bromo-4-((5-bromo-4-methyl-2-thiophenyl)methyl)-4H-1,2,4-triazol-3-yl)thio)acetate] |  |
| 210 °C (dec.) | 0.32 ± 0.07 | O=C([O-])C1(Sc2ncc(Br)n2Cc2cccs2)CCC1.[Na+] [1x, Sodium 1-((5-bromo-1-((2-thiophenyl)methyl)-1H-imidazol-2-yl)thio)cyclobutanecarboxylate] | URAT1 inhibitory activity (in words) [1]: highly potent |
| 178 to 180 °C | 7.98 ± 2.14 | CCc1ccc(Cn2c(Br)nnc2SCC(=O)[O-])s1.[Na+] [1hc, Sodium 2-((5-bromo-4-((5-ethyl-2-thiophenyl)methyl)-4H-1,2,4-triazol-3-yl)thio)acetate] |  |
| 122 °C (dec.) | 1.36 ± 0.24 | O=C([O-])CSc1nnc(Br)n1Cc1ccc2ncccc2c1.[Na+] [1n, Sodium 2-((5-bromo-4-(quinoline-6-methyl)-4H-1,2,4-triazol-3-yl)thio)acetate] |  |
|  | 1.39 ± 0.42 | CC(C)(Sc1ccncc1Cc1ccc(C#N)c2ccccc12)C(=O)O [1u, Sodium 2-((3-((4-cyano-1-naphthyl)methyl)pyridin-4-yl)thio)-2-methylpropionate] |  |
| 136 °C (dec.) | 0.59 ± 0.17 | N#Cc1ccc(Cn2c(Br)nnc2SC2(C(=O)[O-])CCC2)c2ccccc12.[Na+] [1p, Sodium 1-((5-bromo-4-((4-cyano-1-naphthyl)methyl)-4H-1,2,4-triazol-3-yl)thio)cyclobutanecarboxylate] |  |

The next lines start with the compound.

| SMILES | melting point | IC50 [1] [µM] | further results |
| --- | --- | --- | --- |
| Cc1ccc(Cn2c(Br)nnc2SCC(=O)[O-])s1.[Na+] [1hb, Sodium 2-((5-bromo-4-((5-methyl-2-thiophenyl)methyl)-4H-1,2,4-triazol-3-yl)thio)acetate] | 157 °C (dec.) | > 50 |  |
| CCn1c(Br)nnc1SCC(=O)O [1a, Sodium 2-((5-bromo-4-ethyl-4H-1,2,4-triazol-3-yl)thio)acetate] |  | 18.4 ± 3.36 |  |
| N#Cc1ccc(Cc2cnccc2SC2(C(=O)[O-])CCC2)c2ccccc12.[Na+] [1v, Sodium 1-((3-((4-cyano-1-naphthyl)methyl)pyridin-4-yl)thio)cyclobutanecarboxylate] | 296 °C (dec.) | 1.15 ± 0.2 |  |
| CC(C)(Sc1ncc(Br)n1Cc1cccs1)C(=O)[O-].[Na+] [1w, Sodium 2-((5-bromo-1-((2-thiophenyl)methyl)-1H-imidazol-2-yl)thio)-2-methylpropionate] | 75 °C (dec.) | 17.4 ± 3.98 | URAT1 inhibitory activity (in words) [1]: weak |
| O=C([O-])CSc1nnc(Br)n1Cc1ccc(-c2ccccc2)s1.[Na+] [1hg, Sodium 2-((5-bromo-4-((5-phenyl-2-thiophenyl)methyl)-4H-1,2,4-triazol-3-yl)thio)acetate] | 212 °C (dec.) | 31.7 ± 9.34 |  |
| CC(C)(Sc1ncc(Br)n1Cc1ccc(C#N)c2ccccc12)C(=O)[O-].[Na+] [1r, Sodium 2-((5-bromo-1-((4-cyano-1-naphthyl)methyl)-1H-imidazol-2-yl)thio)-2-methylpropionate] | 243 °C (dec.) | 0.21 ± 0.07 |  |
| O=C([O-])CSc1nnc(Br)n1Cc1ccco1.[Na+] [1g, Sodium 2-((5-bromo-4-(2-furanylmethyl)-4H-1,2,4-triazol-3-yl)thio)acetate] | 108 to 111 °C | 4.54 ± 0.69 |  |
| O=C([O-])CSc1nnc(Br)n1Cc1ccc(Cl)s1.[Na+] [1ha, Sodium 2-((5-bromo-4-((5-chloro-2-thiophenyl)methyl)-4H-1,2,4-triazol-3-yl)thio)acetate] | 97 °C (dec.) | 11.2 ± 2.36 |  |
| O=C([O-])CSc1nnc(Br)n1CC12CC3CC(CC(C3)C1)C2.[Na+] [1d, Sodium 2-((4-(1-adamantylmethyl)-5-bromo-4H-1,2,4-triazol-3-yl)thio)acetate] | 194 °C (dec.) | 5.11 ± 0.79 |  |
| CC(C)(Sc1nnc(Br)n1Cc1ccc(C#N)c2ccccc12)C(=O)O [1o] |  | 1.96 ± 0.34 |  |
| O=C([O-])CSc1nnc(Br)n1Cc1cccc2c1sc1ccccc12.[Na+] [1hi, Sodium 2-((5-bromo-4-((dibenzo[b,d]thiophen-4-yl)methyl)-4H-1,2,4-triazol-3-yl)thio)acetate] | 74 °C (dec.) | 18.5 ± 5.41 |  |
| CCCn1c(Br)nnc1SCC(=O)O [1b, Sodium 2-((5-bromo-4-n-propyl-4H-1,2,4-triazol-3-yl)thio)acetate] |  | 4.83 ± 1.02 |  |
| O=C([O-])CSc1nnc(Br)n1Cc1ccc2ccccc2c1.[Na+] [1m, Sodium 2-((5-bromo-4-(2-naphthylmethyl)-4H-1,2,4-triazol-3-yl)thio)acetate] | 118 °C (dec.) | 4.66 ± 1.04 |  |
| O=C([O-])CSc1nnc(Br)n1Cc1cccnc1.[Na+] [1f, Sodium 2-((5-bromo-4-(3-pyridinylmethyl)-4H-1,2,4-triazol-3-yl)thio)acetate] | 109 to 111 °C | 14.2 ± 4.71 |  |
| O=c1[nH]c(=O)c2[nH]c(=O)[nH]c2[nH]1 [Uric acid] |  |  | pKa [2]: 5.75 |
